This note sets out measurements from ChEMBL document CHEMBL3045096, “Pharmacophore modeling and 3D-QSAR (CoMSIA) studies for structural requirements of some triazine derivatives as G-quadruplex binders for telomerase inhibition” (Med Chem Res, 2013).

Usually IC50 stands for the concentration that gives 50% inhibition. Read a high IC50 as weaker potency.

For this experiment, the target named is Telomerase reverse transcriptase (Homo sapiens, UniProt O14746). Kind of experiment: Inhibition of telomerase (unknown origin).
Telomerase reverse transcriptase, sequence (O14746 whole entry): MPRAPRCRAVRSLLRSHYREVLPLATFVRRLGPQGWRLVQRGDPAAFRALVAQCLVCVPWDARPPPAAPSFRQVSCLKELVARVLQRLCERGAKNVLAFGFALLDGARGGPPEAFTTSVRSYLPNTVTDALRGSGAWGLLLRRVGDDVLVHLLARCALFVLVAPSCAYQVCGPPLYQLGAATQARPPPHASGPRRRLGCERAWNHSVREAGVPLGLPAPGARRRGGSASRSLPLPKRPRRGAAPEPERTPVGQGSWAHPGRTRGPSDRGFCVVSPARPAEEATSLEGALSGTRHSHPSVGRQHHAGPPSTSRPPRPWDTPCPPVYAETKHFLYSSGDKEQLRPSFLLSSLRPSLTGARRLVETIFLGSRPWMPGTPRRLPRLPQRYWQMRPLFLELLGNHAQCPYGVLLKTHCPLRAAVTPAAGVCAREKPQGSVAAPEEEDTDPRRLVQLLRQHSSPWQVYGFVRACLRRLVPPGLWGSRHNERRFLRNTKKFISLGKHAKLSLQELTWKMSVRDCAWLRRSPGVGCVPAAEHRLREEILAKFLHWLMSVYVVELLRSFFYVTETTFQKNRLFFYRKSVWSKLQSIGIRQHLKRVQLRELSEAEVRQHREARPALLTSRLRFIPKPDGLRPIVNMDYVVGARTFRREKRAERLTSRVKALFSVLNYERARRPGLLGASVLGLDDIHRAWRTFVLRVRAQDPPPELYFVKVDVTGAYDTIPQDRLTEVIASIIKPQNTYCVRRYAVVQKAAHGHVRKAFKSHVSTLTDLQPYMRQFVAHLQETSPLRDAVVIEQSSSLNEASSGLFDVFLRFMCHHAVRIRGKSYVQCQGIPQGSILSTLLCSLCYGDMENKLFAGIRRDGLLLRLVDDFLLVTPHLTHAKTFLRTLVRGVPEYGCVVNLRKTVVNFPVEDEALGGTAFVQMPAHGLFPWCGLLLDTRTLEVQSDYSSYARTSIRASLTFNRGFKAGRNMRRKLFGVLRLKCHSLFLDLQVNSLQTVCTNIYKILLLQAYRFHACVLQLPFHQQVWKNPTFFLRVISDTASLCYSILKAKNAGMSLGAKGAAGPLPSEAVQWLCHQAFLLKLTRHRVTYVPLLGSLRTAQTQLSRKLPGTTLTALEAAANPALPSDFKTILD

For the molecule `CSc1nc(Nc2ccc3nc(C)cc(N(C)C)c3c2)nc(Nc2ccc3nc(C)cc(N(C)C)c3c2)n1`, the IC50 is 41 nM. As to `COc1cc(C)nc2ccc(Nc3nc(Nc4ccc5nc(C)cc(N)c5c4)nc(SC)n3)cc12`, half-maximal inhibition (IC50) required 2300 nM. The value for `CCc1cc(Nc2nc(Nc3ccc4nc(C)cc(N)c4c3)nc(SC)n2)ccn1` was 2200 nM.

`CSc1nc(Nc2ccc(C#N)cc2)nc(Nc2ccc3nc(C)cc(N)c3c2)n1`: inhibition was half-maximal at 3400 nM (IC50). The same measure for `CCn1c2ccccc2c2cc(Nc3nc(Nc4ccc5nc(C)cc(N)c5c4)nc(SC)n3)ccc21`: 2800 nM.

For `CSc1nc(Nc2ccc3nc[nH]c3c2)nc(Nc2ccc3nc(C)cc(C)c3c2)n1`, half-maximal inhibition (IC50) was put at 3300 nM. Regarding `Cc1cc(N)c2cc(Nc3nc(Nc4ccc5c(c4)c(N)cc(C)[n+]5C)nc(N(C)C)n3)ccc2[n+]1C`, 220 nM corresponded to half-maximal inhibition (IC50). Molecule `Cc1cc(N)c2cc(Nc3nc(N)nc(Nc4ccc5c(c4)c(N)cc(C)[n+]5C)n3)ccc2[n+]1C` returned an IC50 of 250 nM.

`N=C(N)c1ccc(Nc2nc(N)nc(Nc3ccc(C(=N)N)cc3)n2)cc1` came in with an IC50 of 740 nM.

`CSc1nc(Nc2ccc3nc(C)cc(N)c3c2)nc(Nc2ccc3nc(C)cc(N(C)C)c3c2)n1`: half-maximal inhibition (IC50) required 340 nM. `Cc1cc(N)c2cc(Nc3ccnc(Nc4ccc5nc(C)cc(N)c5c4)n3)ccc2n1` came in with an IC50 of 490 nM. Molecule `Cc1cc(N)c2cc(Nc3nc(N)nc(Nc4ccc5nc(C)cc(N)c5c4)n3)ccc2n1` came in with an IC50 of 51 nM. Regarding `COc1ccc2nccc(Nc3nc(Nc4ccc5nc(C)cc(C)c5c4)nc(SC)n3)c2c1`, the IC50 is 3300 nM. For the molecule `Cc1cc(N(C)C)c2cc(Nc3nc(Cl)nc(Nc4ccc5nc(C)cc(N(C)C)c5c4)n3)ccc2n1`, half-maximal inhibition (IC50) was put at 3000 nM.

In turn, `COc1cc(C)nc2ccc(Nc3nc(Nc4ccc5nc(C)cc(OC)c5c4)nc(SC)n3)cc12` showed an IC50 of 3900 nM.

For the molecule `CSc1nc(Nc2ccc3nc(C)cc(C)c3c2)nc(Nc2ccnc3ccccc23)n1`, the IC50 was determined as 3400 nM.

The molecule `CC[n+]1c(C)cc(N)c2cc(Nc3nc(N)nc(Nc4ccc5c(c4)c(N)cc(C)[n+]5CC)n3)ccc21` returned an IC50 of 56 nM. `CSc1nc(Nc2cccc(C(=N)N)c2)nc(Nc2ccc3nc(C)cc(N)c3c2)n1`: 3300 nM corresponded to half-maximal inhibition (IC50). In the case of `CSc1nc(Nc2ccc3c(c2)c(=N)cc(C)n3C)nc(Nc2ccc3c(c2)c(=N)cc(C)n3C)n1`, the IC50 was 950 nM.

With `CNc1nc(Nc2ccc3nc(C)cc(NC)c3c2)nc(Nc2ccc3nc(C)cc(NC)c3c2)n1`, the IC50 was found to be 300 nM. In the case of `CSc1nc(Nc2ccc3ncccc3c2)nc(Nc2ccc3nc(C)cc(N)c3c2)n1`, inhibition was half-maximal at 2600 nM (IC50).

`CSc1nc(Nc2ccc3nc(C)cc(N)c3c2)nc(Nc2ccc3nc(C)cc(N)c3c2)n1` gave an IC50 of 49 nM.

`CCN(CC)c1nc(Nc2ccc3ncccc3c2)nc(Nc2ccc3nc(C)cc(N)c3c2)n1` gave a concentration for half-maximal inhibition (IC50) of 2500 nM. The value for `CCN(CC)c1nc(Nc2ccncc2)nc(Nc2ccc3nc(C)cc(C)c3c2)n1` was 3400 nM; that for `CSc1nc(Nc2ccc3nc(C)ccc3c2)nc(Nc2ccc3nc(C)cc(N)c3c2)n1` was 1000 nM. The molecule `CNc1nc(Nc2ccc3nc(C)cc(N)c3c2)nc(Nc2ccc3nc(C)cc(N)c3c2)n1` registered an IC50 of 510 nM. Molecule `CSc1nc(Nc2ccc3nc(C)cc(N)c3c2)nc(N(C)c2ccc3ncccc3c2)n1` registered an IC50 of 3500 nM. On to `C[n+]1cccc2cc(Nc3nc(N)nc(Nc4ccc5c(ccc[n+]5C)c4)n3)ccc21`, for which the IC50 stood at 130 nM. The value for `Cc1cc(N)c2cc(NC(=N)NC(=N)Nc3ccc4nc(C)cc(N)c4c3)ccc2n1` was 2000 nM; that for `CSc1nc(Nc2ccc3nc(C)cc(C)c3c2)nc(Nc2ccc3nc(C)cc(N)c3c2)n1` was 3400 nM. Turning to `C[n+]1c2ccccc2c(N)c2cc(Nc3nc(N)nc(Nc4ccc5c(c4)c(N)c4ccccc4[n+]5C)n3)ccc21`, half-maximal inhibition (IC50) was put at 890 nM.
